Assay results from the supplement of paper PMC10307832.

Experiments:
Assay in all cases: relative viability (nuclei count vs DMSO), 5 days (fraction); higher = more cells survive
[1] = compound: Nc1nc2[nH]cc(CCc3ccc(C(=O)N[C@@H](CCC(=O)O)C(=O)O)cc3)c2c(=O)[nH]1 [Pemetrexed] + Nc1ncn([C@H]2C[C@H](O)[C@@H](CO)O2)c(=O)n1 [Decitabine] (partner 2 µM)
How it was run: (§1)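 Nuclei were stained with Hoechst during a one-step fixation (final 0.05% Triton X-100, 1% formaldehyde, 1 ug/ml Hoechst) carried out 5 days after dosing, then counted on 4× images. The cells, lung cancer lines in 1536-well plates, had been dosed by pin tool the day after seeding with one drug alone or a fixed anchor-drug dose plus five library-drug doses (not always all listed) in √10 steps. Relative viability is the nuclei count in treated wells divided by that in vehicle wells, and each value is the median of duplicate plates.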

[2] = compound: Nc1nc2[nH]cc(CCc3ccc(C(=O)N[C@@H](CCC(=O)O)C(=O)O)cc3)c2c(=O)[nH]1 [Pemetrexed] + C[C@@H](Oc1cc(-c2cnn(C3CCNCC3)c2)cnc1N)c1c(Cl)ccc(F)c1Cl [Crizotinib] (partner 1 µM)
How it was run: as §1

[3] = compound: CC[C@H](Nc1ncnc2[nH]cnc12)c1nc2cccc(F)c2c(=O)n1-c1ccccc1 [Idelalisib] + COc1cc2c(Oc3ccc(NC(=O)C4(C(=O)Nc5ccc(F)cc5)CC4)cc3F)ccnc2cc1OCCCN1CCOCC1 [Foretinib] (partner 0.25 µM)
How it was run: as §1

[4] = compound: CC[C@H](Nc1ncnc2[nH]cnc12)c1nc2cccc(F)c2c(=O)n1-c1ccccc1 [Idelalisib] + CC1(C)CCC(c2ccc(Cl)cc2)=C(CN2CCN(c3ccc(C(=O)NS(=O)(=O)c4ccc(N[C@H](CCN5CCOCC5)CSc5ccccc5)c(S(=O)(=O)C(F)(F)F)c4)cc3)CC2)C1 [Navitoclax] (partner 0.5 µM)
How it was run: as §1

Cell Line	relative viability ([1]; first compound 0.002 µM)	relative viability ([1]; first compound 0.006325 µM)	relative viability ([1]; first compound 0.02 µM)	relative viability ([1]; first compound 0.06325 µM)	relative viability ([1]; first compound 0.2 µM)	relative viability ([2]; first compound 0.002 µM)	relative viability ([2]; first compound 0.006325 µM)	relative viability ([2]; first compound 0.02 µM)	relative viability ([2]; first compound 0.06325 µM)	relative viability ([2]; first compound 0.2 µM)	relative viability ([3]; first compound 0.04 µM)	relative viability ([3]; first compound 0.1265 µM)	relative viability ([3]; first compound 0.4 µM)	relative viability ([3]; first compound 1.265 µM)	relative viability ([3]; first compound 4 µM)	relative viability ([4]; first compound 0.04 µM)	relative viability ([4]; first compound 0.1265 µM)	relative viability ([4]; first compound 0.4 µM)	relative viability ([4]; first compound 1.265 µM)	relative viability ([4]; first compound 4 µM)
RERF-LC-KJ	0.609	0.753	0.801	0.721	0.415	0.89	0.852	0.878	0.832	0.805	0.879	0.953	0.809	0.871	0.768	0.922	0.951	0.884	0.792	0.638
NCI-H1975	0.322	0.403	0.378	0.291	0.223	–	0.879	0.987	0.806	0.438	0.934	0.931	0.885	0.86	0.867	1.1	1.08	1.12	1.06	0.692
LCLC-97TM1	0.241	0.245	0.203	0.233	0.209	0.263	0.352	0.404	0.338	0.224	1.1	0.961	0.877	1.03	0.776	0.468	0.453	–	0.335	0.337
NCI-H520	0.504	0.453	0.538	0.479	0.494	0.776	0.679	1.08	0.969	0.79	0.738	0.741	0.587	0.7	0.553	0.981	0.944	0.983	1.24	0.798
A-427	0.585	0.537	0.545	0.572	0.544	0.905	0.894	0.953	0.936	0.884	1.27	0.946	0.962	1.04	1.06	0.939	0.91	1.01	1.06	0.811
NCI-H460	–	0.468	0.507	0.323	0.0945	0.842	0.794	1.02	0.197	0.0567	1.03	1.06	0.962	1	0.896	1.12	1.07	1.09	1.24	1.14
NCI-H23	0.287	0.307	0.322	0.325	0.318	0.507	0.467	0.589	0.438	0.425	1.2	1.1	0.766	–	0.859	0.843	0.872	0.718	0.765	0.606
LOU-NH91	0.811	0.78	0.798	0.66	0.578	0.701	0.747	0.988	0.636	0.504	1.03	0.912	0.888	0.803	0.864	0.741	0.699	0.667	0.463	0.617
NCI-H2009	0.372	0.307	0.416	0.355	0.342	1.01	1.04	1.01	1.06	1.04	1.17	1.21	1.16	1.23	1.14	1.11	1.17	1.19	1.22	1.18
NCI-H2126	0.55	0.588	0.569	0.608	0.567	0.967	0.96	1.02	1.03	0.965	1.21	1.26	1.06	1.33	1.09	0.896	0.861	0.813	0.805	0.789
ChaGo-K-1	0.538	0.531	0.552	0.531	0.368	1.15	1	0.969	0.366	0.344	1.02	0.919	0.766	0.931	0.82	1.03	1.01	1.12	1.09	1.14
NCI-H1437	0.528	0.577	0.555	0.443	0.359	0.948	0.854	0.965	0.586	0.281	1.24	1.32	1.24	1.36	1.42	0.956	1.13	1.08	1.17	1.11
SK-LU-1	0.617	0.659	0.699	0.642	0.603	0.771	0.883	0.858	0.953	0.731	0.816	0.765	0.811	0.693	0.766	0.871	1.05	0.988	0.683	0.799
NCI-H838	0.475	0.45	0.516	0.365	0.274	0.83	0.814	1.03	0.935	0.415	1.08	0.947	0.912	0.931	0.821	1	1.14	1.07	1.05	0.977
NCI-H1755	0.708	0.738	0.734	0.693	0.695	0.787	0.814	0.897	0.973	0.78	0.951	0.915	0.889	0.843	0.9	0.964	0.959	0.923	0.836	0.687
NCI-H1915	0.263	0.258	0.243	0.25	0.26	0.876	0.834	0.936	0.877	0.914	1.15	1.1	1.09	1.19	1.09	0.797	0.772	0.812	0.78	0.764
